Experimental findings from US20160376240A1, “6 Phenyl or 6 Pyridin 3 YL Indazole Derivatives and Methods of Use” (ABBVIE INC., priority 2014, published 2016) are described below.

One assay concerns the target T1, TrkA (Homo sapiens, UniProt P04629).
T1 construct: purchased Invitrogen PV3144
The assay can be described thus: TrkA kinase inhibition, HTRF assay. The note with it: LCK peptide substrate 125 nM, TrkA 2-10 nM pre-incubated with ATP 200 μM. The format is biochemical. Put shortly:
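TrkA (2-10 nM) preactivated 20 min with 200 μM ATP in HEPES pH 7.4 with Mg2+/Mn2+, then compound for 10 min, then 125 nM biotinylated LCK-peptide for 1 h at ambient temperature. HTRF 665/620 ratio read; IC50 fitted from initial-rate percent inhibition.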
In general terms: TR-FRET usually uses a lanthanide donor and a delayed reading to cut background.

The next assay deals with T2, TrkB (Homo sapiens, UniProt Q16620).
T2 construct: purchased Invitrogen PV3616
T2 sequence (Q16620 32-822): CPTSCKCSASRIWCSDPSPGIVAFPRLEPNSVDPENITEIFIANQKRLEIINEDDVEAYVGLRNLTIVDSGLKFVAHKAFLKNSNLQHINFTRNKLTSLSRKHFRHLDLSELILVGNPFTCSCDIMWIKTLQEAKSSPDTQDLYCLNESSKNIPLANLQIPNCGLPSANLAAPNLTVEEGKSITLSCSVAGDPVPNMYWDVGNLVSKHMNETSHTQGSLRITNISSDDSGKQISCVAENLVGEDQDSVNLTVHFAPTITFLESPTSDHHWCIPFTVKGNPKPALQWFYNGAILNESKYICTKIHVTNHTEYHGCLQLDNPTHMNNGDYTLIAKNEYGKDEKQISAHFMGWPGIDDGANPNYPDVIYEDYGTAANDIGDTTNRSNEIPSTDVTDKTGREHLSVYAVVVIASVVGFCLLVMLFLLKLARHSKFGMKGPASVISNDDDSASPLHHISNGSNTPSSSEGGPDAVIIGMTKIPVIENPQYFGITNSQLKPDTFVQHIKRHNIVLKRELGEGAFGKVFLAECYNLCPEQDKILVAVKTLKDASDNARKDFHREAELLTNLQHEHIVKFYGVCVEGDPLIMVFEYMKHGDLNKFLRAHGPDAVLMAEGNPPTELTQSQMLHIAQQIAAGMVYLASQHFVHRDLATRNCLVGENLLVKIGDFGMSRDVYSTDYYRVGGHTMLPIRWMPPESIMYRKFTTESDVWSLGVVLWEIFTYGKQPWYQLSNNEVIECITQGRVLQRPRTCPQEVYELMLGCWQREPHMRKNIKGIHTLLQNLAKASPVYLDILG
The assay is described as follows: TrkB kinase inhibition, HTRF assay. The format is biochemical. The note with it: LCK peptide substrate, assay ATP concentration targeted 5 μM. The procedure: (§1) TrkA, TrkB, and TrkC enzymes were obtained from Invitrogen (as catalog numbers PV3144, PV3616, and PV3617, respectively). The ability of a compound to inhibit the enzymatic activity of the TrkA, TrkB, and TrkC enzymes was determined in separate assays. Enzyme activity was measured in an HTRF® (homogeneous time resolved fluorescence) assay, which detects enzymatic phosphorylation of a biotinylated synthetic peptide substrate (an LCK peptide analog, biotin-ahx-GAEEEIYAAFFA, from Genemed Synthesis). Phosphorylation is assessed by HTRF® in the presence of an anti-phosphotyrosine antibody conjugated to Eu^3+ cryptate (Cisbio) as donor fluorophore, and streptavidin conjugated to allophycocyanin (ProZyme) as acceptor fluorophore. The HTRF® signal was detected at two different wavelengths (620 nm and 665 nm) which were used to calculate the fluorescence ratio.
(§2) Each enzyme was titrated to a concentration optimized to ensure accurate measurement of the initial reaction rate. To allow the Trk enzymes to undergo activation and auto-phosphorylation, a 20 minute pre-incubation with ATP was carried out (at twice the final targeted enzyme and ATP concentration) prior to addition of test compound and the peptide substrate.
(§3) TrkA in vitro assays were performed by pre-incubating TrkA (2-10 nM) with ATP (200 μM) for 20 minutes at ambient temperature in 50 mM HEPES pH 7.4, 10 mM MgCl2, 2 mM MnCl2, 100 μM Na3VO4, 1 mM dithiothreitol, 0.01% BSA (bovine serum albumin). Then, to the activated Trk enzyme mixture was added the test compound in 2% dimethyl sulfoxide. After 10 minutes, the peptide substrate (125 nM) was added. After 1 hour, enzyme reactions were terminated by addition of equal reaction volumes of detection/stop reagent (containing 0.2 μg/mL anti-phosphotyrosine monoclonal antibody labeled with europium from Cisbio (catalog# PT66-K), and 4 μg/mL PhycoLink® Streptavidin-Allophycocyanin conjugate from ProZyme (catalog# PJ25S) in 60 mM EDTA in 40 mM HEPES pH 7.4, 480 mM KF, 0.01% Tween® 20 and 0.1% BSA bovine serum albumin) Reaction plates were stored at 4° C. overnight before reading the fluorescence ratio signal on a PerkinElmer EnVision™ fluorescence detector. Individual reaction wells were stopped at time points to obtain reaction rates. The test inhibitor compounds were assayed in duplicate, at half-log serial dilutions over a range of concentrations (e.g. starting at 50 μM or 5 μM as the high compound concentration). The percent Trk enzyme inhibition was calculated from the initial rates of the inhibited reactions relative to the uninhibited control. IC50 values were calculated by fitting the inhibition percent to the concentration of inhibitor [I] in the assay in equation 1 below, to solve for the IC50.
(§4) Inhibition %=100[I]/([I]+[IC50]) equation 1
(§5) The TrkB and TrkC in vitro assays were performed as described above, except that for these enzymes the assay ATP concentration targeted was 5 μM.

A further assay deals with T3, TrkC (Homo sapiens, UniProt Q16288).
T3 construct: purchased Invitrogen PV3617
T3 sequence (Q16288 32-839): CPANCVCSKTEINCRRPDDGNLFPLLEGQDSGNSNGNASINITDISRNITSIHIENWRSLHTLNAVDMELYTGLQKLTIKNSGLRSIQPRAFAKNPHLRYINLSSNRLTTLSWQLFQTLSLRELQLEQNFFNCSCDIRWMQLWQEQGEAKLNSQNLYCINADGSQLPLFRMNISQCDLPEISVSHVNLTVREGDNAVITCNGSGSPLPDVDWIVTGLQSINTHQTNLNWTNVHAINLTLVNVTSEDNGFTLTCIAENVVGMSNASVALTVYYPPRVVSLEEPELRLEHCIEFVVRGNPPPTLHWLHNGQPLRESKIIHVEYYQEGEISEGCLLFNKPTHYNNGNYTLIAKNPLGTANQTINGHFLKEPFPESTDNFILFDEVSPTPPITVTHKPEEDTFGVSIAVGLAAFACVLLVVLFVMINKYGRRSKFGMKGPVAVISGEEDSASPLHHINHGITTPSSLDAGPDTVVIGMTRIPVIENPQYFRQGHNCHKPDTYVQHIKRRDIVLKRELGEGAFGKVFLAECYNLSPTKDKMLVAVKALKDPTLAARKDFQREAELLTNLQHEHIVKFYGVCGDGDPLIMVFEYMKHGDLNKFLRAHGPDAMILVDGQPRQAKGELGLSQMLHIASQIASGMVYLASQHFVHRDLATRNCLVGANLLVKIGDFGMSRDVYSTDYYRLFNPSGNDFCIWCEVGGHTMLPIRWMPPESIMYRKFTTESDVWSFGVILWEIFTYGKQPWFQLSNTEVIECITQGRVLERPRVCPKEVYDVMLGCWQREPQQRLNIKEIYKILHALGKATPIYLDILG
The assay is described as follows: TrkC kinase inhibition, HTRF assay. The format is biochemical. The note with it: LCK peptide substrate, assay ATP concentration targeted 5 μM. The procedure: as §1, §2, §3, §4, §5

Assay [1] relates to rat model of mono-iodoacetic acid induced osteoarthritis pain. The assay can be described thus: Osteoarthritis pain model, hind limb grip force in MIA-treated rats. The format is in vivo. As to conditions: mean percent effect, ***p<0.001 vs vehicle-treated animals. The procedure:
Members of the TrkA inhibitors described above were tested and found effective in reducing osteoarthritis pain. The compounds tested were assessed in an in vivo model well known to those skilled in the art, the rat model of mono-iodoacetic acid induced osteoarthritis pain. A general review of various models of pain can be found in Joshi and Honore, Expert Opinion in Drug Discovery (2004) 1, pp. 323-334, and in the book ‘Drug Discovery and Evaluation, 2nd edition (H. Gerhard Vogel, editor; Springer-Verlag, New York, 2002; pp. 702-706).
Pain behavior was assessed by measurement of hind limb grip force (GF) in adult osteoarthritic rats. Male Sprague Dawley rats, generally weighing 125-150 g, were injected in the unilateral knee join with a single intra-articular injection of sodium monoiodoacetate (MIA). Rats were tested at 21-28 days following MIA injection. A behavioral measure of activity-induced pain was carried out. Measurements of the peak hind limb grip force were conducted by recording the maximum compressive force (CFmax), in grams of force, exerted on a hind limb strain gauge setup, in a commercially available grip force measurement system (Columbus Instruments, Columbus, Ohio).
During testing, each rat was gently restrained by grasping it around its rib cage and then allowed to grasp the wire mesh frame attached to the strain gauge. The experimenter then moved the animal in a rostral-to-caudal direction until the grip was broken. Each rat was sequentially tested twice at an approximately 2-3 minute interval to obtain a raw mean grip force (CFmax). This raw mean grip force data was in turn converted to a maximum hindlimb cumulative compressive force (CFmax), as the grams of force/kg of body weight, for each animal.
For evaluating the compound effects, the hind limb grip force testing in the MIA-treated rats was conducted generally 30-60 minutes after dosing with the test compound. A group of age-matched nave (not injected with MIA) animals was added as a comparator to the drug-dosed groups. The vehicle control response for each group of MIA-treated animals was defined as the 0% response (0% effect), whereas the nave control group was defined as the normal response and as 100% effect. The % effect=(Treatment CFmax−Vehicle CFmax)/Vehicle CFmax]×100). Higher % effect numbers indicate increased relief from the pain in the model, with 100% indicating a return to the level of response seen in normal (non-osteoarthritic) animals. All experiments evaluating drug effects in this model were conducted in a randomized blinded fashion.
Male Sprague Dawley rats (generally 250-300 g body weight at the time of testing) obtained from Charles River Laboratories (Wilmington, Mass.) were used for all experiments, unless indicated otherwise. […]

What is called IC50 is the concentration that gives 50% inhibition. A high value points to a need for much substance.

T1 sequence (P04629 33-796): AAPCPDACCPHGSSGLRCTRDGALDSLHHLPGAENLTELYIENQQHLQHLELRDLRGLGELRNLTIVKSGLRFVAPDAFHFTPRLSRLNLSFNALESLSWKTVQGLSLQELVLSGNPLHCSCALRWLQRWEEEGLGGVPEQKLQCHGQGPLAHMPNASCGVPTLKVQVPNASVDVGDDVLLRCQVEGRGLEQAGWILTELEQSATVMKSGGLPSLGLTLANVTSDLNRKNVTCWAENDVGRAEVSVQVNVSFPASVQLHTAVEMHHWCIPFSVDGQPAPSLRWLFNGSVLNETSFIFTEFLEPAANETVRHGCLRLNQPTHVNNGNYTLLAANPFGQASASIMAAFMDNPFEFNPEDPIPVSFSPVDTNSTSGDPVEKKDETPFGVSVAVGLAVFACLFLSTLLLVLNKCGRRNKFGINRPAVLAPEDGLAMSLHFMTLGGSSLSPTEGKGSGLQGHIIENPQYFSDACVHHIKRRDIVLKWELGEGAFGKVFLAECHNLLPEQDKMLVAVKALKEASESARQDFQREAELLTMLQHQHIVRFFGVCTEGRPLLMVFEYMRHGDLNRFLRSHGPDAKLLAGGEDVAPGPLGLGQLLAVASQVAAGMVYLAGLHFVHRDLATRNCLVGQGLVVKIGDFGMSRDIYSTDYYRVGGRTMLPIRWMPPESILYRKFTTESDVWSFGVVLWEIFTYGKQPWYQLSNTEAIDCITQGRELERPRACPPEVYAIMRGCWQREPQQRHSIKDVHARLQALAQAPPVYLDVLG

As for `CNC(=O)c1ccc(-c2cc(OC3CCOCC3)c3c(N)n[nH]c3c2)cc1N1CCN(C2CCCCC2)CC1` [Example 29, 4-[3-amino-4-(tetrahydro-2H-pyran-4-yloxy)-1H-indazol-6-yl]-2-(4-cyclohexylpiperazin-1-yl)-N-methylbenzamide], the IC50 is 0.0979 µM on TrkA, 0.046 µM at TrkB and 0.0559 µM on TrkC. In addition, the “% Effect” value in assay [1] (dose 100 mg/kg p.o.) is 77%***.
On to `CC(C)N1CCN(c2cc(-c3cc(OC(C)C(F)(F)F)c4c(N)n[nH]c4c3)ccc2C(N)=O)CC1` (centres unmarked) [Example 101, 4-{3-amino-4-[(1,1,1-trifluoropropan-2-yl)oxy]-1H-indazol-6-yl}-2-(4-isopropylpiperazin-1-yl)benzamide], for which the IC50 against TrkA was determined as 0.377 µM; against TrkB it was 0.317 µM; against TrkC, 0.305 µM.
`CNC(=O)c1ccc(-c2cc(OC3CCOCC3)c3c(N)n[nH]c3c2)cc1N1CCN(CC(F)(F)F)CC1` [Example 108, 4-[3-amino-4-(tetrahydro-2H-pyran-4-yloxy)-1H-indazol-6-yl]-N-methyl-2-[4-(2,2,2-trifluoroethyl)piperazin-1-yl]benzamide]: the IC50 against TrkA was determined as 0.0305 µM; at TrkB, 0.0413 µM; against TrkC, 0.0522 µM. Besides, in assay [1] (dose 30 mg/kg p.o.), the “% Effect” value is reported as 73%***.
`CNC(=O)c1ccc(-c2cc(OC(C)C)c3c(N)n[nH]c3c2)cc1N1CCN(C2CCCCC2)CC1` [Example 109, 4-(3-amino-4-isopropoxy-1H-indazol-6-yl)-2-(4-cyclohexylpiperazin-1-yl)-N-methylbenzamide]: the IC50 at TrkA was determined as 0.0157 µM; against TrkB, 0.00258 µM; on TrkC, 0.00489 µM.
For the compound `CNC(=O)c1ccc(-c2cc(OC3CCOCC3)c3c(N)n[nH]c3c2)cc1N1CCN(CC2CCCC2)CC1` [Example 110, 4-[3-amino-4-(tetrahydro-2H-pyran-4-yloxy)-1H-indazol-6-yl]-2-[4-(cyclopentylmethyl)piperazin-1-yl]-N-methylbenzamide], the concentration for half-maximal inhibition (IC50) against TrkA turned out to be 0.00273 µM; against TrkB, 0.00163 µM; against TrkC, 0.00258 µM.
On to `CNC(=O)c1ccc(-c2cc(OC3CCOCC3)c3c(N)n[nH]c3c2)cc1N1CCN(c2ncc(F)cn2)CC1` [Example 113, 4-[3-amino-4-(tetrahydro-2H-pyran-4-yloxy)-1H-indazol-6-yl]-2-[4-(5-fluoropyrimidin-2-yl)piperazin-1-yl]-N-methylbenzamide], for which the IC50 against TrkA amounted to 0.00474 µM. Further, in assay [1] (dose 30 mg/kg p.o.), the “% Effect” value was 89%***.
As to `CNC(=O)c1ccc(-c2cc(OC3CCOCC3)c3c(C)n[nH]c3c2)cc1N1CCN(C(=O)OC(C)C)CC1` [Example 125, isopropyl 4-{2-(methylcarbamoyl)-5-[3-methyl-4-(tetrahydro-2H-pyran-4-yloxy)-1H-indazol-6-yl]phenyl}piperazine-1-carboxylate], the IC50 against TrkA is 0.00798 µM; against TrkB it was 0.0032 µM; at TrkC, 0.00511 µM. For the same compound, the “% Effect” value in assay [1] (dose 30 mg/kg p.o.) was 85%***.
For `CC(=O)Nc1ccc(-c2cc(OC3CCOCC3)c3c(C)n[nH]c3c2)cc1OCCOc1ccccc1` [Example 130, N-{4-[3-methyl-4-(tetrahydro-2H-pyran-4-yloxy)-1H-indazol-6-yl]-2-(2-phenoxyethoxy)phenyl}acetamide], the 50% inhibitory concentration (IC50) against TrkA is 0.0137 µM; against TrkB, 0.0015 µM; at TrkC, 0.0015 µM.
